{
  "source": "patent EP0277849A1",
  "about": "“Incorporation of one or more lipophilic, active principles into lipoproteins, lipoproteins obtained and pharmaceutical compositions containing them” (IRE-CELLTARG S.A., priority 1987, dated 1988)",
  "key": {"[1]": {"assay": "Incorporation of antifungal agent into LDL by NaDoc dissociation-reconstitution", "assay_type": "physicochemical", "settings": "1,6 mg LDL, 482 µg of agent, dialysis", "protocol": "On ajoute à 1,6 mg de LDL préalablement dialysées contre le tampon C, 10 mg de NaDoc solide et on laisse réagir 30 minutes à température ambiante. On ajoute à la préparation 2,8 ml d'une solution NaDoc 20 mM, Na2COs 50 mM, NaCi 50 mM, pH 10 contenant 482 µg de CT4000A ou 482 µg de CT040013. Les échantillons sont dialysés à 4° C contre trois fois 1 litre de tampon B.\nLe pourcentage de récupération en LDL, en CT040013 et en NaDoc est déterminé au terme du processus de reconstitution (figure 13).\nIl est également possible de rapporter la masse de substance incorporée par mole de LDL. Les résultats obtenus pour le CT04000A et la CT040013 sont respectivement de 0,4 et de 208 moles incorporés par mole de LDL."}, "macrophages J77468": {"test_system": "macrophages J77468", "assay": "Toxicity for J77468 macrophages (MTT reduction)", "assay_type": "cell-based, murine", "settings": "for % de viabilité cellulaire*: 18 h, MTT", "protocol": "(§1) La lignée continue de macrophages J77468 d'origine murine provient d'un clonage de la souche J774 ATCC, et est cultivée en milieu RPMI 1640 additionné de glutamine 2 mM, 10% de sérum de veau foetal (décomplémenté 60 min. à 56°) et de 10 mM Hepes (pH 7.2). Une suspension de 5 10^6 cellules/ml sont infectées avec une culture de Candida tropicalis (5 10^5 levures/ml) provenant d'une culture de nuit dans de la casitone. Le milieu d'infection utilisé est du RPMI contenant 2 % de sérum de veau nouveau-né et 10 mM Hepes (pH 7.2).\nLa viabilité des macrophages J77468 cultivés dans du milieu contenant l'agent antifongique encapsulé ou non dans les LDL figure au Tableau 5. K et K01 sont toxiques aux concentrations nécessaires pour réduire de 50 % l'infection intracellulaire (C1250) contrairement au LDL-K01 pour lequel aucune toxicité n'a pu être détectée."}, "C. tropicalis": {"test_system": "C. tropicalis", "assay": "Extracellular infection in the infected-macrophage model", "assay_type": "cell-based", "settings": "Candida tropicalis, read-out: CIext50^(a)", "protocol": "as §1\nAprès 3 h d'incubation à 37° dans un mélange d'air 10 % C02, la phagocytose des levures est complète. La suspension cellulaire macrophages-Candida est centrifugée, lavée abondamment et répartie à raison de 10^5 macrophages infectés/alvéole dans des boîtes à 24 alvéoles contenant une lamelle de verre (diamètre 14 mm). Après 3 h de phagocytose (To), sur 100 macrophages, 32 contiennent de 1 à 6 Candida/macrophage, l'infection moyenne étant de 2 Candida/macrophage.\nToutes les levures ont été phagocytées sauf rares exceptions (estimation au microscope optique après coloration au May-Grünwald Giemsa). Douze concentrations différentes des drogues de référence et des drogues encapsulées dans les LDL sont distribuées dans les boîtes contenant les macrophages infectés.\nL'évaluation de l'efficacité d'une drogue se fait à chaque concentration. Testées après 18 h d'incubation (37°, dans un mélange air-10 % C02), les levures se multiplient d'abord au sein des cellules hôtes, puis dans le milieu extracellulaire. Le taux de macrophages infectés est alors de 75 % chez les témoins. Une cellule peut contenir de 1 à plus de 20 Candida/cellule, la majorité contient de 2 à 6 levures/cellule. Le milieu de culture contient 10^8 Candida extracellulaires/ml (comptage dans une cellule de Burker).\nL'action des AF encapsulés sur une infection extracellulaire peut être évaluée de deux manières : d'une part en déterminant le nombre de Candida extracellulaires dans un modèle d'infection intracellulaire (voir VIII § 1.1.), d'autre part en mesurant la concentration minimale inhibitrice (CMI) de ces composés par la méthode de dilutions successives dans des boîtes à multipuits (milieu RPMI)."}},
  "note": "pIC50: −log10 of the molar value. Read-outs that look alike come from different tables or passages of the source.",
  "data": [
    {"smiles": "CCCCCCCC/C=C\\CCCCCCCC(=O)N1CCN(c2ccc(OC[C@H]3CO[C@](Cn4ccnc4)(c4ccc(Cl)cc4Cl)O3)cc2)CC1", "note": "[KO1]", "values": [
      {"measurement": "moles incorporés par mole de LDL", "setting": "[1]", "value": "208 moles incorporés par mole de LDL"},
      {"measurement": "toxicité aux concentrations nécessaires pour réduire de 50 % l'infection intracellulaire", "setting": "macrophages J77468", "value": "toxiques"},
      {"measurement": "% de viabilité cellulaire*", "setting": "macrophages J77468; Concentration 0,78 µM", "value": "67,72%"},
      {"measurement": "% de viabilité cellulaire*", "setting": "macrophages J77468; Concentration 1,56 µM", "value": "67,72%"},
      {"measurement": "% de viabilité cellulaire*", "setting": "macrophages J77468; Concentration 3,13 µM", "value": "67,36%"},
      {"measurement": "% de viabilité cellulaire*", "setting": "macrophages J77468; Concentration 6,25 µM", "value": "60,70%"},
      {"measurement": "% de viabilité cellulaire*", "setting": "macrophages J77468; Concentration 12,50 µM", "value": "69,47%"},
      {"measurement": "% de viabilité cellulaire*", "setting": "macrophages J77468; Concentration 25,00 µM", "value": "67,71%"},
      {"measurement": "% de viabilité cellulaire*", "setting": "macrophages J77468; Concentration 50,00 µM", "value": "71,22%"},
      {"measurement": "% de viabilité cellulaire*", "setting": "macrophages J77468; Concentration 100,00 µM, versus untreated control", "value": "38,94%"},
      {"measurement": "pIC50", "setting": "C. tropicalis; addition de 2 % Pl.H. (plasma humain)", "value": 4.30},
      {"measurement": "pIC50", "setting": "C. tropicalis; addition de 2 % SVF (sérum de veau foetal)", "value": 5.08}
    ]}
  ]
}
